Measurements taken from patent US20170227553A1, “COMPOSITIONS AND METHODS FOR IDENTIFYING AND TREATING CONDITIONS INVOLVING HSF1 ACTIVITY” (Duke University, priority 2014, published 2017).

How the values were obtained:
[1] = tested on: Htt-Q74 expressing PC12 cells; assay: Hsp70 immunoblot after CK2 inhibitor pre-treatment, Htt-Q74 induction and heat shock; format: cell-based, rat; settings: 0.5, 1 and 5 μM for 15 h prior to doxycycline induction; heat shock 42° C. 1 h, 7 h recovery
Experimental: Then cells were either not treated (−Dox) or treated with doxycycline at 1 microgram/mL during 3 days (+Dox) at 37° C. Cells were then heat shocked at 42° C. (1 h) followed by 7 h recovery (HS) at 37° C. Total protein was analyzed by SDS-PAGE and immunoblotting for Hsp70 and GAPDH. (D) Cells from CK2 kinase inhibitor treatment were analyzed by fluorescence microscopy using GFP as a marker for Htt-Q74 aggregation and the number of cells with inclusions bodies was quantified and normalized with total cell number from DIC images, as a measure of Htt-Q74 protein aggregation. Data are presented as mean±SE from three separate experiments (* P<0.05, ** P<0.01). (E) Htt-Q74 PC12 cells were incubated at 37° C. in a 96-well plate in the presence of either DMSO or the kinase inhibitor TID43 at 5 microMolar final concentration during 15 h prior to Htt-Q74 induction by doxycycline. Cells were then either not treated or treated with doxycycline at 1 microgram/mL for 3 days (+Dox) at 37° C. and then heat shocked at 42° C. (1 h) followed by 7 h recovery (HS) at 37° C. Cell viability was analyzed using the Cell Titer Glo assay (Promega) and values were expressed as percentage of viable cells compared with untreated cells at 37° C. Data are presented as means±SE from three separate experiments (* P<0.05). […]

HD cell models = assay: HSF1 levels revived with CK2 inhibitors in HD cell models; format: cell-based

| SMILES | HSF1 activation, Hsp70 expression levels (immunoblot) [1] | HSF1 levels (HD cell models) |
| --- | --- | --- |
| Cn1cc(C2=C(c3ccc(Cl)cc3Cl)C(=O)NC2=O)c2ccccc21 [SB216763] | rescue HSF1 activation, Hsp70 expression levels | revived |
| Cc1cc(O)c2c(c1)C(=O)c1cc(O)cc(O)c1C2=O [Emodin] | rescue HSF1 activation, Hsp70 expression levels |  |
| O=C(O)c1c[nH]c2c(Cl)c(Cl)ccc2c1=O [Cay10577, 7,8-dichloro-1,4-dihydro-4-oxo-3-quinolinecarboxylic acid] |  | revived |
| Brc1c(Br)c(Br)c2[nH]cnc2c1Br [TBBz] |  | revived |
